Experimental data published in US7632952B2, “Benzothiazoles and the use thereof as medicaments” (Aventis Pharma S.A., priority 2004, dated 2009).
Structures can show the parent of a compound that is named as a salt.

Legend:
[1] = biological target: CDK4/cyclin D1 (Homo sapiens, UniProt P11802); assay: CDK4/cyclin D1 Flashplate test in 96-well format; assay type: biochemical
Summary of the method: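 CDK4-HA/cyclin D1-(His)6 complex from coinfected Sf9 cells, 25 nM final, phosphorylating 1.8 μM biotinylated pRb peptide in HEPES pH 7.5 with MgCl2, DTT and [γ-33P]ATP at 30 °C. 33P incorporation captured on streptavidin Flashplates and read by scintillation counting; IC50 from seven-point inhibitor dilutions.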

[2] = biological target: CDK2/cyclin E (Homo sapiens, UniProt P24941); assay: CDK2/cyclin E Flashplate test in 96-well format; assay type: biochemical; conditions: read-out: CDK2 IC50
Summary of the method: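 CDK2/cyclin E-(His)6 from baculovirus-coinfected Sf21 cells was IMAC-purified. Kinase reaction used biotinylated pRb peptide (10 μM final), [γ-33P]ATP in HEPES pH 7.5 with Mg2+ and DTT, at 30 °C in streptavidin Flashplates. 33P incorporation was scintillation counted and IC50 determined.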

Sequence of CDK4/cyclin D1 (P11802 whole entry): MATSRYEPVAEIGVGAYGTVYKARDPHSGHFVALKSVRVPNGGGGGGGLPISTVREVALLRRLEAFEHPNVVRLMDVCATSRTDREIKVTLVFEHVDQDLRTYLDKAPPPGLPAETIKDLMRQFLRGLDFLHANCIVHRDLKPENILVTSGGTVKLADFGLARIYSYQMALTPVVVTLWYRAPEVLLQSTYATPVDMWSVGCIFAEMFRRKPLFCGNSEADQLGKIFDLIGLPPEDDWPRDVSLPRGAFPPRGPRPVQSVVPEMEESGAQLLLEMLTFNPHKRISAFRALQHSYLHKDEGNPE
Sequence of CDK4/cyclin D1 (P24385 whole entry partner): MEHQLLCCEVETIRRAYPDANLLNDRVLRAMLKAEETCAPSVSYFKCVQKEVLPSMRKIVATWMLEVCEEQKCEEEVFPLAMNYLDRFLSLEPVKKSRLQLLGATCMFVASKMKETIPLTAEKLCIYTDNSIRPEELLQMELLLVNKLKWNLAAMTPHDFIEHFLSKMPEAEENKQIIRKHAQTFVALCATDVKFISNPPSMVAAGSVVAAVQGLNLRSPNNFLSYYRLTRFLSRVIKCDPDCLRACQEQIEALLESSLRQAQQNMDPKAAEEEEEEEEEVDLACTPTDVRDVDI

Row | SMILES | IC50 [1] [nM] | IC50 [2] [nM]
1 | O=C(Nc1nc2ccc(OS(=O)(=O)c3ccc(NCCCn4ccnc4)cc3)cc2s1)C1CC1 [Example 9, 4-(3-imidazol-1-ylpropylamino)benzenesulfonic 2-(cyclopropanecarbonylamino)benzothiazol-6-yl ester] | 931 | 68
2 | CNc1ccc(S(=O)(=O)Oc2ccc3nc(NC(=O)C4CC4)sc3c2)cc1 [Example 10, 4-methylaminobenzenesulfonic 2-(cyclopropane-carbonylamino)benzothiazol-6-yl ester] | 944 | 92
3 | CC(C)(O)CNc1ccc(S(=O)(=O)Oc2ccc3nc(NC(=O)C4CC4)sc3c2)cc1 [Example 11, 4-(2-hydroxy-2-methylpropylamino)benzene-sulfonic 2-(cyclopropanecarbonylamino)benzothiazol-6-yl ester] | 924 | 19
4 | CC(C)N(CCNc1ccc(S(=O)(=O)Oc2ccc3nc(NC(=O)C4CC4)sc3c2)cc1)C(C)C [Example 12, 4-(2-diisopropylaminoethylamino)benzenesulfonic 2-(cyclopropanecarbonylamino)benzothiazol-6-yl ester] | 205 | 25
5 | O=C(Nc1nc2ccc(OS(=O)(=O)c3cccs3)cc2s1)C1CC1 [Example 33h, Thiophene-2-sulfonic acid 2-(cyclopro-panecarbonylamino)benzothiazol-6-yl ester] | 358 | 6980
6 | CC(C)N(CCNc1ccc(S(=O)(=O)Oc2ccc3nc(NC(=O)C4(N)CCCC4)sc3c2)cc1)C(C)C [Example 41, 4-(2-diisopropylaminoethylamino)benzenesulfonic acid 2-[(1-aminocyclopentanecarbonyl)amino]benzothiazol-6-yl ester] | > 10000 | > 10000
7 | CC(=O)Nc1nc2ccc(OS(=O)(=O)c3ccc(NCCN(C(C)C)C(C)C)cc3)cc2s1 [Example 43, 4-(2-Diisopropylaminoethylamino)benzenesulfonic acid 2-acetylaminobenzothiazol-6-yl ester] | 119 | 49

Now from value to molecule:

Row | IC50 [1] [nM] | IC50 [2] [nM] | SMILES
8 | 313 | 108 | COCC(=O)Nc1nc2ccc(OS(=O)(=O)c3ccc(NCCN(C(C)C)C(C)C)cc3)cc2s1 [Example 44, 4-(2-Diisopropylaminoethylamino)benzenesulfonic acid 2-(2-methoxyacetylamino)benzothiazol-6-yl ester]
9 | 341 | 136 | CC(C)N(CCNc1ccc(S(=O)(=O)Oc2ccc3nc(NC(=O)C4CCCC4)sc3c2)cc1)C(C)C [Example 45, 4-(2-Diisopropylaminoethylamino)benzenesulfonic acid 2-(cyclo-pentanecarbonylamino)benzothiazol-6-yl ester]
10 | 205 | 25 | CC(C)NCCNc1ccc(S(=O)(=O)Oc2ccc3nc(NC(=O)C4CC4)sc3c2)cc1 [Example 53, 4-(2-isopropylaminoethylamino)benzenesulfonic 2-(cyclopropanecarbonylamino)benzothiazol-6-yl ester hydrochloride]
11 | 221 | 73 | CC(C)C(=O)Nc1nc2ccc(OS(=O)(=O)c3ccc(NCCN(C(C)C)C(C)C)cc3)cc2s1 [Example 55, 4-(2-diisopropylaminoethylamino)benzenesulfonic acid 2-isobutyrylaminobenzothiazol-6-yl ester hydrochloride]
12 | 125 | 40 | CCC(=O)Nc1nc2ccc(OS(=O)(=O)c3ccc(NCCN(C(C)C)C(C)C)cc3)cc2s1 [Example 57, 4-(2-diisopropylaminoethylamino)benzenesulfonic acid 2-propionylaminobenzothiazol-6-yl ester hydrochloride]
13 | 265 | 105 | CC(C)N(CCNc1ccc(S(=O)(=O)Oc2ccc3nc(NC(=O)C4CCC4)sc3c2)cc1)C(C)C [Example 60, 4-(2-diisopropylaminoethylamino)benzenesulfonic acid 2-(cyclobutanecarbonylamino)benzothiazol-6-yl ester hydrochloride]
14 | 1390 | 79 | CC(C)(O)CNc1ccc(S(=O)(=O)Oc2ccc3nc(NC(=O)CCc4cccnc4)sc3c2)cc1 [Example 63, 4-(2-hydroxy-2-methylpropylamino)benzene-sulfonic acid 2-(3-pyrid-3-ylpropionylamino)benzothiazol-6-yl ester hydro-chloride]
15 | 170 | 107 | CC(=O)Nc1nc2ccc(OS(=O)(=O)c3ccc(NCCNC(C)C)cc3)cc2s1 [Example 65, 4-(2-isopropylaminoethylamino)benzenesulfonic acid 2-acetylaminobenzothiazol-6-yl ester]
16 | > 10000 | > 10000 | O=C(Nc1nc2ccc(OS(=O)(=O)c3ccc(-c4ccccn4)s3)cc2s1)C1CC1 [Example 85, 5-pyridin-2-ylthiophene-2-sulfonic acid 2-(cyclopropanecarbonylamino)benzothiazol-6-yl ester]
17 | 3320 | 105 | CC(C)(CNc1ccc(S(=O)(=O)Oc2ccc3nc(NC(=O)C4CC4)sc3c2)cc1)OP(=O)(O)O [Example 89, 4-(2-methyl-2-phosphonooxypropylamino)benzene-sulfonic acid 2-(cyclopropanecarbonylamino)benzothiazol-6-yl ester]
